Measurements: patent publication US11897856B1, “N-(Naphthalen-1-ylcarbamothioyl)furan-2-carboxamide as an eco-friendly insecticidal agent against Spodoptera littoralis (boisd.)” (KING FAISAL UNIVERSITY, priority 2023, dated 2024)
Converted amounts (≈) assume the structure as drawn. Like-named read-outs stand apart in the source and are kept apart here.

Test system: Spodoptera littoralis
Experiment: Insecticidal bioassay screening (castor leaf dip, larval mortality)
Type: in vivo
Settings: for Toxicity index %: 72 hrs, Diflubenzuron's LC50/compound's LC50 x 100; for LC90 (mg/L) at 95%: after 72 hrs of treatment; for LC50: Spodoptera littoralis, in Gossypium hirsutum, foliar
Description: Five concentrations (200, 100, 50, 25, 12.5 ppm) were designed for this synthetic compound and the reference Diflubenzuron compound as the dynamic ingredients based on ppm via diluting the commercial formulation.
In this experiment, castor leaves are immersed in each of the previously prepared concentrations of the components for 10 seconds and then left to dry for 60 minutes. Larvae of the second and fourth instars of each checked strain are prepared with treated leaves in gauze-covered glass containers for 72 hrs. An untreated control is made in which leaves are dipped in triton x-100 and distilled water only. Then the preserved leaves were removed & fresh, untreated leaves were provided for 72 hours. Three replicates (10 larvae each) were checked for each concentration. Daily inspection was carried out for all treatments and mortality percentages were recorded 3 days (72 hours) after treatment. The average mortality percentage was corrected employing Abbott's formula. The corrected mortality rate for each of the previously synthesized compounds is statistically calculated according to Finney (1970). Through this rate, the corresponding concentration test lines (LDP lines) are assessed.

[1] = against Spodoptera littoralis under laboratory conditions, instar not stated
[2] = 72 h, read-out: LC50 (mg/L) at 95%, 2nd instar larvae, after 72 hrs of treatment
[3] = 72 h, read-out: LC50 (mg/L) at 95%, 4th instar larvae, after 72 hrs of treatment

SMILES	Toxicity index % (2nd instar larvae)	LC90 (mg/L) at 95% (2nd instar larvae)	Toxicity index % (4th instar larvae)	LC90 (mg/L) at 95% (4th instar larvae)	LC50 [1]	Insecticidal activity (in words) (against Spodoptera littoralis, compared with Diflubenzuron)	LC50 (mg/L) at 95% (in vivo)	LC50 [2]	LC50 [3]
O=C(NC(=S)Nc1cccc2ccccc12)c1ccco1 [Compound 2, N-(Naphthalen-1-ylcarbamothioyl)furan-2-carboxamide]	11.3%	3612.2 mg/L (≈ 12200 µM)	12.9%	1727.9 mg/L (≈ 5830 µM)	400 mg/L (≈ 1350 µM)	active against Spodoptera littoralis	1211.2 mg/L (≈ 4090 µM)		
O=C(NC(=O)c1c(F)cccc1F)Nc1ccc(Cl)cc1 [Diflubenzuron, reference compound]	100%	520.0 mg/L (≈ 1670 µM)	100%	1540.5 mg/L (≈ 4960 µM)	45.2 mg/L (≈ 145 µM)			45.2 mg/L (≈ 145 µM)	144 mg/L (≈ 464 µM)
O=C(NC(=S)Nc1cccc2ccccc12)c1ccco1 [N-(Naphthalen-1-ylcarbamothioyl)furan-2-carboxamide]								~400 mg/L (≈ 1350 µM)	~1210 mg/L (≈ 4090 µM)
